The data set in a line: Extended storage of the L-malic acid salt at rt. The class given is physicochemical. An excerpt:
NMR (CDCl3 δ from TMS): 0.9-1.0 (m, 6H), 1.0-1.1 (m, 6H), 1.2-1.4 (m, 2H), 1.6-1.95(2 m's, 6H), 2.30 (s, 3H), 2.6-2.9 (2 m's, 4H), 2.92 and 2.94 (2 s, 3H), 3.2-3.4 (m, 2H), 3.52 (br t, 2H, J=8 Hz), 4.5-4.8 (m, 3H), 5.11 (br s, 1H), 7.04 (2 d's, 1H, J=8Hz), 7.13 (br S, 4H).
The material prepared as described above in Example 20, Step A was hydrogenated as described in Example 19, Step B to afford the L-malic acid salt of 2-(S)-[2-[[2-aminoethyl]-ethylamino]-2-oxoethoxy]-3,3-diethyl-N-[1-(R)-(4- methylphenyl)butyl]-4-oxo-1-azetidinecarboxamide as an oil. […] This process could be evaluated by HPLC analysis.

As to `CCC[C@@H](NC(=O)N1C(=O)C(CC)(CC)[C@@H]1OCC(=O)N(CC)CCN)c1ccc(C)cc1` [Example 20, 2-(S)-[2-[[2-Aminoethyl]-ethylamino]-2-oxoethoxy]-3,3-diethyl-N-[1-(R)-(4-methylphenyl)butyl]-4-oxo-1-azetidinecarboxamide], the stability upon storage result is “rearranged upon storage to an equilibrium mixture of isomers”.
